{"source": "patent US20210053957A1", "about": "“HERBICIDAL COMPOUNDS” (SYNGENTA PARTICIPATIONS AG, priority 2018, published 2021)", "assay_in_all_cases": "Post-emergence efficacy, glasshouse spray test", "assay_type_in_all_cases": "in vivo", "key": {"Eleusine indica (ELEIN)": {"system": "Eleusine indica (ELEIN)", "settings": "Eleusine indica, post-emergence, 312 h; Application Rate 500 g/Ha; evaluated after 13 days; read-out: Control of weed species after post-emergence application, ELEIN (100=total damage to plant; 0=no damage to plant)", "experimental": "(§1) Seeds of a variety of test species were sown in standard soil in pots. After cultivation for 14 days (post-emergence) under controlled conditions in a glasshouse (at 24/16° C. day/night; 14 hours light; 65% humidity), the plants were sprayed with an aqueous spray solution derived from the dissolution of the technical active ingredient formula (I) in a small amount of acetone and a special solvent and emulsifier mixture referred to as IF50 (11.12% Emulsogen EL360 TM+44.44% N-methyl pyrrolidone+44.44% Dowanol DPM glycolether), to create a 50 g/l solution which was then diluted to required concentration using 0.25% or 1% Empicol ESC70 (Sodium lauryl ether sulphate)+1% ammonium sulphate as diluent. The test plants were then grown in a glasshouse under controlled conditions (at 24/16° C., day/night; 14 hours light; 65% humidity) and watered twice daily. After 13 days the test was evaluated (100=total damage to plant; 0=no damage to plant).\n(§2) Ipomoea hederacea (IPOHE), Euphorbia heterophylla (EPHHL), Chenopodium album (CHEAL), Amaranthus palmeri (AMAPA), Lolium perenne (LOLPE), Digitaria sanguinalis (DIGSA), Eleusine indica (ELEIN), Echinochloa crus-galli (ECHCG), Setaia fabei (SETFA)"}, "[1]": {"system": "Ipomoea hederacea (IPOHE)", "settings": "Ipomoea hederacea, post-emergence, 312 h; Application Rate 500 g/Ha; evaluated after 13 days; read-out: Control of weed species after post-emergence application, IPOHE (100=total damage to plant; 0=no damage to plant)", "experimental": "as §1, §2"}, "[2]": {"system": "Digitaria sanguinalis (DIGSA)", "settings": "Digitaria sanguinalis, post-emergence, 312 h; Application Rate 500 g/Ha; evaluated after 13 days; read-out: Control of weed species after post-emergence application, DIGSA (100=total damage to plant; 0=no damage to plant)", "experimental": "as §1, §2"}, "[3]": {"system": "Amaranthus palmeri (AMAPA)", "settings": "Amaranthus palmeri, post-emergence, 312 h; Application Rate 500 g/Ha; evaluated after 13 days; read-out: Control of weed species after post-emergence application, AMAPA (100=total damage to plant; 0=no damage to plant)", "experimental": "as §1, §2"}, "Setaia fabei (SETFA)": {"system": "Setaia fabei (SETFA)", "settings": "Setaria faberi, post-emergence, 312 h; Application Rate 500 g/Ha; evaluated after 13 days; read-out: Control of weed species after post-emergence application, SETFA (100=total damage to plant; 0=no damage to plant)", "experimental": "as §1, §2"}, "[4]": {"system": "Echinochloa crus-galli (ECHCG)", "settings": "Echinochloa crus-galli, post-emergence, 312 h; Application Rate 500 g/Ha; evaluated after 13 days; read-out: Control of weed species after post-emergence application, ECHCG (100=total damage to plant; 0=no damage to plant)", "experimental": "as §1, §2"}, "[5]": {"system": "Chenopodium album (CHEAL)", "settings": "Chenopodium album, post-emergence, 312 h; Application Rate 500 g/Ha; evaluated after 13 days; read-out: Control of weed species after post-emergence application, CHEAL (100=total damage to plant; 0=no damage to plant)", "experimental": "as §1, §2"}, "Lolium perenne (LOLPE)": {"system": "Lolium perenne (LOLPE)", "settings": "Lolium perenne, post-emergence, 312 h; Application Rate 500 g/Ha; evaluated after 13 days; read-out: Control of weed species after post-emergence application, LOLPE (100=total damage to plant; 0=no damage to plant)", "experimental": "as §1, §2"}}}
{"compound": "Cn1nnc(-c2cc[n+](CCC(=O)O)nc2)n1", "note": "[Compound A28]", "values": [{"measurement": "pest or weed control at 500 g/ha", "setting": "Eleusine indica (ELEIN)", "value": 100, "unit": "%"}, {"measurement": "pest or weed control at 500 g/ha", "setting": "[1]", "value": 30, "unit": "%"}, {"measurement": "pest or weed control at 500 g/ha", "setting": "[2]", "value": 70, "unit": "%"}, {"measurement": "pest or weed control at 500 g/ha", "setting": "[3]", "value": 100, "unit": "%"}, {"measurement": "pest or weed control at 500 g/ha", "setting": "Setaia fabei (SETFA)", "value": 100, "unit": "%"}, {"measurement": "pest or weed control at 500 g/ha", "setting": "[4]", "value": 100, "unit": "%"}, {"measurement": "pest or weed control at 500 g/ha", "setting": "[5]", "value": 90, "unit": "%"}, {"measurement": "pest or weed control at 500 g/ha", "setting": "Lolium perenne (LOLPE)", "value": 70, "unit": "%"}]}
{"compound": "Cn1cc(-c2cc[n+](CCS(=O)(=O)[O-])nc2)nn1", "note": "[Compound A81]", "values": [{"measurement": "pest or weed control at 500 g/ha", "setting": "Eleusine indica (ELEIN)", "value": 10, "unit": "%"}, {"measurement": "pest or weed control at 500 g/ha", "setting": "[1]", "value": 10, "unit": "%"}, {"measurement": "pest or weed control at 500 g/ha", "setting": "[2]", "value": 70, "unit": "%"}, {"measurement": "pest or weed control at 500 g/ha", "setting": "[3]", "value": 50, "unit": "%"}, {"measurement": "pest or weed control at 500 g/ha", "setting": "Setaia fabei (SETFA)", "value": 50, "unit": "%"}, {"measurement": "pest or weed control at 500 g/ha", "setting": "[4]", "value": 30, "unit": "%"}, {"measurement": "pest or weed control at 500 g/ha", "setting": "[5]", "value": 40, "unit": "%"}, {"measurement": "pest or weed control at 500 g/ha", "setting": "Lolium perenne (LOLPE)", "value": 10, "unit": "%"}]}
{"compound": "Cn1cc(-c2cc[n+](CCC(=O)O)nc2)nn1", "note": "[Compound A80]", "values": [{"measurement": "pest or weed control at 500 g/ha", "setting": "Eleusine indica (ELEIN)", "value": 10, "unit": "%"}, {"measurement": "pest or weed control at 500 g/ha", "setting": "[1]", "value": 10, "unit": "%"}, {"measurement": "pest or weed control at 500 g/ha", "setting": "[2]", "value": 60, "unit": "%"}, {"measurement": "pest or weed control at 500 g/ha", "setting": "[3]", "value": 40, "unit": "%"}, {"measurement": "pest or weed control at 500 g/ha", "setting": "Setaia fabei (SETFA)", "value": 40, "unit": "%"}, {"measurement": "pest or weed control at 500 g/ha", "setting": "[4]", "value": 0, "unit": "%"}, {"measurement": "pest or weed control at 500 g/ha", "setting": "[5]", "value": 10, "unit": "%"}, {"measurement": "pest or weed control at 500 g/ha", "setting": "Lolium perenne (LOLPE)", "value": 0, "unit": "%"}]}
{"compound": "Cc1nsc(-c2cc[n+](CCC(=O)O)nc2)c1C", "note": "[Compound A58]", "values": [{"measurement": "pest or weed control at 500 g/ha", "setting": "Eleusine indica (ELEIN)", "value": 40, "unit": "%"}, {"measurement": "pest or weed control at 500 g/ha", "setting": "[1]", "value": 20, "unit": "%"}, {"measurement": "pest or weed control at 500 g/ha", "setting": "[2]", "value": 90, "unit": "%"}, {"measurement": "pest or weed control at 500 g/ha", "setting": "[3]", "value": 80, "unit": "%"}, {"measurement": "pest or weed control at 500 g/ha", "setting": "Setaia fabei (SETFA)", "value": 90, "unit": "%"}, {"measurement": "pest or weed control at 500 g/ha", "setting": "[4]", "value": 70, "unit": "%"}, {"measurement": "pest or weed control at 500 g/ha", "setting": "[5]", "value": 50, "unit": "%"}, {"measurement": "pest or weed control at 500 g/ha", "setting": "Lolium perenne (LOLPE)", "value": 30, "unit": "%"}]}
{"compound": "O=P(O)(O)CC[n+]1ccc(-c2ncco2)cn1", "note": "[Compound A77]", "values": [{"measurement": "pest or weed control at 500 g/ha", "setting": "Eleusine indica (ELEIN)", "value": 0, "unit": "%"}, {"measurement": "pest or weed control at 500 g/ha", "setting": "[1]", "value": 60, "unit": "%"}, {"measurement": "pest or weed control at 500 g/ha", "setting": "[2]", "value": 90, "unit": "%"}, {"measurement": "pest or weed control at 500 g/ha", "setting": "[3]", "value": 50, "unit": "%"}, {"measurement": "pest or weed control at 500 g/ha", "setting": "Setaia fabei (SETFA)", "value": 80, "unit": "%"}, {"measurement": "pest or weed control at 500 g/ha", "setting": "[4]", "value": 60, "unit": "%"}, {"measurement": "pest or weed control at 500 g/ha", "setting": "[5]", "value": 70, "unit": "%"}, {"measurement": "pest or weed control at 500 g/ha", "setting": "Lolium perenne (LOLPE)", "value": 0, "unit": "%"}]}
{"compound": "COC(=O)CCC[n+]1ccc(-c2nccs2)cn1", "note": "[Compound A114]", "values": [{"measurement": "pest or weed control at 500 g/ha", "setting": "Eleusine indica (ELEIN)", "value": 90, "unit": "%"}, {"measurement": "pest or weed control at 500 g/ha", "setting": "[1]", "value": 10, "unit": "%"}, {"measurement": "pest or weed control at 500 g/ha", "setting": "[2]", "value": 70, "unit": "%"}, {"measurement": "pest or weed control at 500 g/ha", "setting": "[3]", "value": 100, "unit": "%"}, {"measurement": "pest or weed control at 500 g/ha", "setting": "Setaia fabei (SETFA)", "value": 50, "unit": "%"}, {"measurement": "pest or weed control at 500 g/ha", "setting": "[4]", "value": 40, "unit": "%"}, {"measurement": "pest or weed control at 500 g/ha", "setting": "[5]", "value": 60, "unit": "%"}, {"measurement": "pest or weed control at 500 g/ha", "setting": "Lolium perenne (LOLPE)", "value": 30, "unit": "%"}]}
{"compound": "OCCC[n+]1ccc(-c2ncco2)cn1", "note": "[Compound A70]", "values": [{"measurement": "pest or weed control at 500 g/ha", "setting": "Eleusine indica (ELEIN)", "value": 40, "unit": "%"}, {"measurement": "pest or weed control at 500 g/ha", "setting": "[1]", "value": 30, "unit": "%"}, {"measurement": "pest or weed control at 500 g/ha", "setting": "[2]", "value": 80, "unit": "%"}, {"measurement": "pest or weed control at 500 g/ha", "setting": "[3]", "value": 40, "unit": "%"}, {"measurement": "pest or weed control at 500 g/ha", "setting": "Setaia fabei (SETFA)", "value": 40, "unit": "%"}, {"measurement": "pest or weed control at 500 g/ha", "setting": "[4]", "value": 40, "unit": "%"}, {"measurement": "pest or weed control at 500 g/ha", "setting": "[5]", "value": 40, "unit": "%"}, {"measurement": "pest or weed control at 500 g/ha", "setting": "Lolium perenne (LOLPE)", "value": 20, "unit": "%"}]}
{"compound": "O=S(=O)([O-])CC[n+]1ccc(-c2ccco2)cn1", "note": "[Compound A53]", "values": [{"measurement": "pest or weed control at 500 g/ha", "setting": "Eleusine indica (ELEIN)", "value": 60, "unit": "%"}, {"measurement": "pest or weed control at 500 g/ha", "setting": "[1]", "value": 50, "unit": "%"}, {"measurement": "pest or weed control at 500 g/ha", "setting": "[2]", "value": 90, "unit": "%"}, {"measurement": "pest or weed control at 500 g/ha", "setting": "[3]", "value": 60, "unit": "%"}, {"measurement": "pest or weed control at 500 g/ha", "setting": "Setaia fabei (SETFA)", "value": 40, "unit": "%"}, {"measurement": "pest or weed control at 500 g/ha", "setting": "[4]", "value": 30, "unit": "%"}, {"measurement": "pest or weed control at 500 g/ha", "setting": "Lolium perenne (LOLPE)", "value": 20, "unit": "%"}]}
{"compound": "O=C(O)CC[n+]1ccc(-c2nc(Cl)cs2)cn1", "note": "[Compound A46]", "values": [{"measurement": "pest or weed control at 500 g/ha", "setting": "Eleusine indica (ELEIN)", "value": 60, "unit": "%"}, {"measurement": "pest or weed control at 500 g/ha", "setting": "[1]", "value": 50, "unit": "%"}, {"measurement": "pest or weed control at 500 g/ha", "setting": "[2]", "value": 60, "unit": "%"}, {"measurement": "pest or weed control at 500 g/ha", "setting": "Setaia fabei (SETFA)", "value": 60, "unit": "%"}, {"measurement": "pest or weed control at 500 g/ha", "setting": "[4]", "value": 80, "unit": "%"}, {"measurement": "pest or weed control at 500 g/ha", "setting": "[5]", "value": 70, "unit": "%"}, {"measurement": "pest or weed control at 500 g/ha", "setting": "Lolium perenne (LOLPE)", "value": 40, "unit": "%"}]}
